Data as given in US7410980B2, “Crystals of taxane derivative and process for their production” (Daiichi Pharmaceutical Co., Ltd., priority 2001, dated 2008).

Assay: moisture absorption behavior (microbalance, automatic moisture adsorption apparatus)
Format: physicochemical
Method: Moisture absorption behaviors of the crystals of the present invention (β crystals) and an amorphous substance were measured under relative humidity of from 30 to 90%. Each sample of about 20 mg was used and the relative humidity was changed from 30% with 10% pitch by using a microbalance (automatic moisture adsorption apparatus). The measurement temperature was 25° C. An amount of the change was determined when the sample gave the change of 0.03% or less for 30 minutes (maximum retention time: 180 minutes).

| Structure (SMILES) | additional moisture absorbed as compared to the crystals of the present invention (β crystals) (under high humidity, relative humidity 30 to 90%, 25° C., about 20 mg sample) | hygroscopicity (compared with amorphous substance, as shown in the examples) |
| --- | --- | --- |
| CC(=O)O[C@@]12CO[C@@H]1CC[C@@]1(C)[C@@H]3O[C@H](CN(C)C)O[C@@H]3C3=C(C)[C@@H](OC(=O)[C@H](O)[C@@H](NC(=O)OC(C)(C)C)c4ncccc4F)C[C@@](O)([C@@H](OC(=O)c4ccccc4)[C@@H]12)C3(C)C [amorphous substance, (1S,2S,3R,4S,5R,8R,9S,10R,13S)-4-acetoxy-2-benzoyloxy-9,10-[(1S)-2-(dimethylamino)ethylidenedioxy]-5,20-epoxy-1-hydroxytax-11-en-13-yl (2R,3S)-3-(tert-butoxycarbonylamino)-3-(3-fluoro-2-pyridyl)-2-hydroxypropionate] | about 1% | – |
| CC(=O)O[C@@]12CO[C@@H]1CC[C@@]1(C)[C@@H]3O[C@H](CN(C)C)O[C@@H]3C3=C(C)[C@@H](OC(=O)[C@H](O)[C@@H](NC(=O)OC(C)(C)C)c4ncccc4F)C[C@@](O)([C@@H](OC(=O)c4ccccc4)[C@@H]12)C3(C)C [β crystals, (1S,2S,3R,4S,5R,8R,9S,10R,13S)-4-acetoxy-2-benzoyloxy-9,10-[(1S)-2-(dimethylamino)ethylidenedioxy]-5,20-epoxy-1-hydroxytax-11-en-13-yl (2R,3S)-3-(tert-butoxycarbonylamino)-3-(3-fluoro-2-pyridyl)-2-hydroxypropionate] | – | lower than that of an amorphous substance |
